# Reference: patent US20120282224A1, “MARKERS ASSOCIATED WITH RIBAVIRIN-INDUCED ANEMIA” (priority 2009, published 2012)
# Experiments:
# [1] = taribavirin with PegIntron (peginterferon alfa-2b), clinical trials; cited from earlier work
# erythrocytes = erythrocytes versus plasma; cited from earlier work
# [2] = human, in vivo, 4 weeks
# Description: In order to identify genetic contributions to treatment response, the inventors carried out a genome-wide association study on genomic samples obtained from the IDEAL study, the design of which was reported in McHutchison et al., J. Viral Hepatol., Vol. 15, No. 7, July 2008, pp. 475-481). Briefly, in the IDEAL study, treatment-naive patients chronically infected with HCV genotype 1 were randomized (1:1:1) to receive one of the following 48-week treatment regimens: peginterferon alfa-2b (PEG2b) at 1.5 mcg/kg/week plus ribavirin (RBV); PEG2b at 1.0 mcg/kg/week plus RBV; or peginterferon alfa-2a (PEG2a) at 180 meg/week+RBV. In the PEG2b regimens, patients weighing 40-65 kg received 800 mg/day RBV; patients weighing more than 65 and up to 85 kg received 1000 mg/day RBV; patients weighing more than 85 and up to 105 kg received 1200 mg/day RBV; and patients weighing more than 105 kg received 1400 mg/day RBV). In the PEG2a regimen patients weighing <75 kg received 1000 mg/day of RBV while patients weighing ≧75 kg received 1200 mg/day of RBV. Hemoglobin values were measured at baseline (before the first dose of treatment), at week 2, 4, 8, 12, and then every 6 weeks up to treatment completion (48 weeks total). Follow-up measures were obtained at 4, 12 and 24 weeks post-treatment. […]
smiles,measurement,setting,value
"N=C(N)c1ncn([C@@H]2O[C@H](CO)[C@@H](O)[C@H]2O)n1 [taribavirin, 1-(β-D-Ribofuranosyl)-1,2,4-triazole-3-carboximide]",anemia compared with patients treated with ribavirin and PegIntron,[1],less anemia
NC(=O)c1ncn([C@@H]2O[C@H](COP(=O)(O)OP(=O)(O)OP(=O)(O)O)[C@@H](O)[C@H]2O)n1 [RTP],RTP concentration in erythrocytes relative to plasma,erythrocytes,60 fold
"NC(=O)c1ncn([C@@H]2O[C@H](CO)[C@@H](O)[C@H]2O)n1 [RBV, 1-[(2R,3R,4S,5R)-3,4-dihydroxy-5-(hydroxymethyl)oxolan-2-yl]-1H-1,2,4-triazole-3-carboxamide]",patients with Hb concentrations <10 g/dL (severe anemia),[2],13%
